Reference: patent US12378224B2 (Dong-A Socio Holdings Co., Ltd., priority 2016, dated 2025)

Key:
[1] = target: human c-MER catalytic domain (Homo sapiens (Human), UniProt Q12866); assay: TR-FRET Kinase Activity Biochemical Assay (LanthaScreen); details: 10 uM ATP, 1 hour, kinase not given
Method in brief: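 Recombinant human c-MER catalytic domain phosphorylated fluorescein-labeled poly-GT substrate. The reaction was stopped with 10 mM EDTA, then 2 nM Tb-labeled anti-phosphotyrosine antibody was added for 30 min. Kinase activity was taken from the 495/520 nm TR-FRET emission ratio after 340 nm excitation.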

[2] = target: CD8-MerTK (Ba/F3-CDM cells) (Homo sapiens, UniProt Q12866); assay: In Cell MER Kinase Assay Using BaF3 Cellular System; assay type: cell-based; details: Ba/F3-CDM proliferation without IL-3, 48 hours, Celltiter-Glo
Chain of CD8-MerTK (Ba/F3-CDM cells) (Q12866 21-999 limits assumed, stated change not applied): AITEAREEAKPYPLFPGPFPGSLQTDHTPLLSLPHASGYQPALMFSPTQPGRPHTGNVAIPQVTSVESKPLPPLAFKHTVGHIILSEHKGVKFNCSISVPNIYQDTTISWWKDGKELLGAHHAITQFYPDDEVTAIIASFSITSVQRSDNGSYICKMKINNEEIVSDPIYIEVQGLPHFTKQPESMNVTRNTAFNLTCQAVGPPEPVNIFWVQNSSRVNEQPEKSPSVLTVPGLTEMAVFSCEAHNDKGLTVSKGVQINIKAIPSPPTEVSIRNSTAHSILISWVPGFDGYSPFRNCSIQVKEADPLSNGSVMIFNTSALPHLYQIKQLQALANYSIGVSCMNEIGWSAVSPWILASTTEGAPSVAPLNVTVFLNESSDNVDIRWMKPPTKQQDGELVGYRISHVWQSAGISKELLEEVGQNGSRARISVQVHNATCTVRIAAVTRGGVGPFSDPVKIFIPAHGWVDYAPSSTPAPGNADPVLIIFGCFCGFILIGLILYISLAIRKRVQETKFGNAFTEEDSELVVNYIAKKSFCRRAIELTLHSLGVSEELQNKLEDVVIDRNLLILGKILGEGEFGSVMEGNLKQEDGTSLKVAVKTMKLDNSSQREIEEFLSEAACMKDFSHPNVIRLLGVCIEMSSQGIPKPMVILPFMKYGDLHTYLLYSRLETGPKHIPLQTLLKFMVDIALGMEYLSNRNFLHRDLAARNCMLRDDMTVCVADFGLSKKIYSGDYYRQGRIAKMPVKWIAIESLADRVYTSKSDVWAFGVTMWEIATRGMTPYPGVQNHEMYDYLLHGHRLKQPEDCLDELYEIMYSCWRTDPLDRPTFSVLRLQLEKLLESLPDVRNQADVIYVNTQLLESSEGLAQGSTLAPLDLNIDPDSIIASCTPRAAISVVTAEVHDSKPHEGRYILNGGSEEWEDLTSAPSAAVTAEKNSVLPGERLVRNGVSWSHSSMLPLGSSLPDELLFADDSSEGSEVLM
Description: CD8-MerTK is a chimeric fusion protein consisting of the extracellular and transmembrane domains of the human CD8α (amino acids 1 to 209) at its N-terminus and the kinase domain and intracellular parts of MerTK (amino acids 521-994) at its C-terminus. To establish an in cell kinase assay for MerTK kinase, the IL-3 dependent Ba/F3 cells of murine lymphoid origin was transfected with CD8-MerTK. The resulting Ba/F3-CDM line was then validated that Ba/F3-CDM cell proliferation is completely dependent on the activity of MerTK kinase activity when growing in the absence of IL-3. For a routine cellular assay, Ba/F3-CDM cells were seeded at 2,000 cells per well in 384-well cell culture plate containing DMEM/10% FBS culture media and incubated for 24 hours before addition of compounds pre-diluted in culture media. Following compound treatment, cells were further incubated for 48 hours and the proliferation was measured. To discriminate a Ba/F3 growth inhibition by a specific inhibition of MerTK kinase following compound treatment vs growth inhibition due to a non-specific unintended cytotoxicity of compounds, we routinely carried out control sets of Ba/F3 cells in parallel that grown in IL3-supplemented growth media. In the presence of IL-3, the proliferation of Ba/F3 is no longer dependent on the MerTK activity. Cell growth and proliferation was measured with Celltiter-Glo™ system (Promega, USA) according to the manufacturer's instruction. The half-maximal growth inhibitory concentration (GI50) value was calculated with Prism6.0 software (GraphPad, USA).

[3] = target: human MER (528-end) (Homo sapiens (Human), UniProt Q12866); assay: HTRF Kinase Activity Biochemical Assay (KinEASE-TK); details: 10 uM ATP
Chain of human MER (528-end) (Q12866 528-999 limits assumed): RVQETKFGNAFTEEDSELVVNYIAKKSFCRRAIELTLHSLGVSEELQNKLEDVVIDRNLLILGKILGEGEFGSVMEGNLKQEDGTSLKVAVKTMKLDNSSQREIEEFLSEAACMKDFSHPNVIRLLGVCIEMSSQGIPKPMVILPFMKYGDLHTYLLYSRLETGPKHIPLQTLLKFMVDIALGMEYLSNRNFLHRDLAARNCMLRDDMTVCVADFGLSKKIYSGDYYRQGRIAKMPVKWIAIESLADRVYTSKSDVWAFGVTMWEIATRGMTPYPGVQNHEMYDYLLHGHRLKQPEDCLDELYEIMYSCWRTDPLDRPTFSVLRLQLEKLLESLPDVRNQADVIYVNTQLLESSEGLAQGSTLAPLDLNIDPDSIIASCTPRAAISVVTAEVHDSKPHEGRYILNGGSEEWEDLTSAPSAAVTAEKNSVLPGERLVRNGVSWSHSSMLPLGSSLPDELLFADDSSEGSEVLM
Method in brief: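 Recombinant human MER (528-end) phosphorylated biotin-TK peptide substrate, 1 h at room temperature. Reaction stopped with detection buffer containing 0.375 nM Eu3+-cryptate anti-TK antibody and 0.062 uM streptavidin-XL665, 1 h further. Activity taken as HTRF ratio 665/620 nm ×10,000, 340 nm excitation.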

[4] = target: BCR fusion to kinase domain of MerTK (Ba/F3-MerTK) (Homo sapiens, UniProt Q12866); assay: In Cell TAM Kinase Assay Using BaF3 Cellular System; assay type: cell-based, murine; details: Ba/F3 BCR-kinase fusion proliferation, 72 hours, Cell Titer Glo; kinase not given; read-out: IC50
Chain of BCR fusion to kinase domain of MerTK (Ba/F3-MerTK) (Q12866 21-999 limits assumed, change not shown): as the sequence (Q12866 21-999 limits assumed, stated change not applied) above
Method in brief: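 Ba/F3 murine pro-B cells expressing BCR–MerTK kinase-domain fusion (IL-3 independent), seeded at 1,000 cells/well onto compound and grown 72 h. Viability read by CellTiter-Glo 2.0 luminescence after 30 min at room temperature.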

Chain of human c-MER catalytic domain (Q12866 587-858): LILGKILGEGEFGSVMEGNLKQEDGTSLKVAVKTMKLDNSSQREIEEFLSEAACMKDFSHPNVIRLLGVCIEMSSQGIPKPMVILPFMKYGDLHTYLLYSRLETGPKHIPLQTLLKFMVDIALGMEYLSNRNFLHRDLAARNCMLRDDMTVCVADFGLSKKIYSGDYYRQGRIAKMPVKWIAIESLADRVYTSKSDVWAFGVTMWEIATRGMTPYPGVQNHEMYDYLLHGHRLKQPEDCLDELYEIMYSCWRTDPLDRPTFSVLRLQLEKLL

Row | Molecule | IC50 [1] [nM] | IC50 [2] [nM] | IC50 [3] [nM] | IC50 [4] [nM]
1 | Cn1cc(-c2cnc(N)c(C(=O)N[C@@H]3CCN(C(=O)Oc4ccc5cc(OCC6CCNCC6)ccc5c4)C3)c2)cn1 [Example 303] | 10 to 100 | 500 to 1000 |  | 
2 | Cn1cc(-c2cnc(N)c(C(=O)N[C@@H]3CCN(C(=O)Oc4cccc(OCC5CCC(N)CC5)c4)C3)c2)cn1 (stereo partly drawn) [Example 305, 3-(((1R,4R)-4-aminocyclohexyl)methoxy)phenyl (R)-3-(2-amino-5-(1-methyl-1H-pyrazol-4-yl)nicotinamido)pyrrolidine-1-carboxylate] | 100 to 1000 | > 1000 |  | 
3 | Cc1cc(-c2ccc(CN3CCN(C)CC3)cc2)ccc1C(=O)N1CC[C@@H](NC(=O)c2cc(-c3cnn(C)c3)cnc2N)C1 [Example 391, (R)-2-amino-5-(1-methyl-1H-pyrazol-4-yl)-N-(1-(3-methyl-4^1-((4-methylpiperazin-1-yl)methyl)-[1,1′-biphenyl]-4-carbonyl)pyrrolidin-3-yl)nicotinamide] |  | > 1000 | > 1000 | 
4 | Cc1cc(C(=O)N2CC[C@@H](NC(=O)c3cc(-c4cnn(C)c4)cnc3N)C2)ccc1-c1ccc(CN2CCN(C)CC2)cc1 [Example 392, (R)-2-amino-5-(1-methyl-1H-pyrazol-4-yl)-N-(1-(2-methyl-4^1-((4-methylpiperazin-1-yl)methyl)-[1,1′-biphenyl]-4-carbonyl)pyrrolidin-3-yl)nicotinamide] |  | > 1000 | 100 to 1000 | 
5 | Cn1cc(-c2cnc(N)c(C(=O)N[C@@H]3CCN(C(=O)c4ccc(-c5ccc(OCC6CCNCC6)cc5)cc4)C3)c2)cn1 [Example 550] | 10 to 100 | > 1000 |  | 
6 | Nc1ncc(-c2ccc(N3CCOCC3)nc2)cc1C(=O)N[C@@H]1CCN(C(=O)c2ccc(-c3ccccc3)cc2)C1 [Example 559] |  | 100 to 500 | 10 to 100 | 
7 | Nc1cncc(-c2cnc(N)c(C(=O)N[C@@H]3CCN(C(=O)c4ccc(-c5ccc(F)cc5Cl)cc4)C3)c2)c1 [Example 583, (R)-5′,6-diamino-N-(1-(2′-chloro-4′-fluoro-[1,1′-biphenyl]-4-carbonyl)pyrrolidin-3-yl)-[3,3′-bipyridine]-1-5-carboxamide] | < 10 | > 1000 |  | 
8 | Nc1ncc(-c2ccccc2C(=O)O)cc1C(=O)N[C@@H]1CCN(C(=O)c2ccc(-c3ccc(F)cc3Cl)cc2)C1 [Example 777, (R)-2-(6-amino-5-((1-(2′-chloro-4′-fluoro-[1,1′-biphenyl]-4-carbonyl)pyrrolidin-3-yl)carbarnoyl)pyridin-3-yl)benzoic acid] |  | > 1000 | > 1000 | 
9 | Cn1cc(-c2cnc(N)c(C(=O)N[C@@H]3CCN(C(=O)c4ccc(Oc5cccc([N+](=O)[O-])c5)cc4)C3)c2)cn1 [Example 829, (R)-2-amino-5-(1-methyl-1H-pyrazol-4-yl)-N-(1-(4-(3-nitrophenoxy)benzoyl)pyrrolidin-3-yl)nicotinamide] |  |  | > 1000 | > 1000
10 | Cn1cc(-c2cnc(N)c(C(=O)N[C@@H]3CCN(C(=O)c4ccc(Oc5cccc(N)c5)cc4)C3)c2)cn1 [Example 830, (R)-2-amino-N-(1-(4-(3-aminophenoxy)benzoyl)pyrrolidin-3-yl)-5-(1-methyl-1H-pyrazol-4-yl)nicotinamide] |  |  | 100 to 1000 | > 1000
11 | Cn1cc(-c2cnc(N)c(C(=O)N[C@@H]3CCN(C(=O)c4ccc(Oc5ccc([N+](=O)[O-])cc5)cc4)C3)c2)cn1 [Example 831, (R)-2-amino-5-(1-methyl-1H-pyrazol-4-yl)-N-(1-(4-(4-nitrophenoxy)benzoyl)pyrrolidin-3-yl)nicotinamide] |  |  | 100 to 1000 | > 1000
12 | Cn1cc(-c2cnc(N)c(C(=O)N[C@@H]3CCN(C(=O)c4ccc(Oc5ccc(N)cc5)cc4)C3)c2)cn1 [Example 832, (R)-2-amino-N-(1-(4-(4-aminophenoxy)benzoyl)pyrrolidin-3-yl)-5-(1-methyl-1H-pyrazol-4-yl)nicotinamide] |  |  | > 1000 | > 1000
13 | CN(c1ccc(-c2ccc(C(=O)N3CC[C@@H](NC(=O)c4cc(-c5cnn(C)c5)cnc4N)C3)cc2)cc1)c1ccc(N)cc1F [Example 835, (R)-2-amino-N-(1-(4′-((4-amino-2-fluorophenyl)(methyl)amino)-[1,1′-biphenyl]-4-carbonyl)pyrrolidin-3-yl)-5-(1-methyl-1H-pyrazol-4-yl)nicotinamide] |  |  | 100 to 1000 | > 1000
14 | Cc1cc(N)ccc1N(C)c1ccc(-c2ccc(C(=O)N3CC[C@@H](NC(=O)c4cc(-c5cnn(C)c5)cnc4N)C3)cc2)cc1 [Example 836, (R)-2-amino-N-(1-(4′-((4-amino-2-methylphenyl)(methyl)amino)-[1,1′-biphenyl]-4-carbonyl)pyrrolidin-3-yl)-5-(1-methyl-1H-pyrazol-4-yl)nicotinamide] |  |  | 100 to 1000 | > 1000
15 | CN(c1ccc(-c2ccc(C(=O)N3CC[C@@H](NC(=O)c4cc(-c5cnn(C)c5)cnc4N)C3)cc2)cc1)c1ccc(N)cc1Cl [Example 837, (R)-2-amino-N-(1-(4′-((4-amino-2-chlorophenyl)(methyl)amino)-[1,1′-biphenyl]-4-carbonyl)pyrrolidin-3-yl)-5-(1-methyl-1H-pyrazol-4-yl)nicotinamide] |  |  | 100 to 1000 | > 1000
16 | Cn1cc(-c2cnc(N)c(C(=O)N[C@@H]3CCN(C(=O)c4ccc(OCc5cccc(N)c5)cc4)C3)c2)cn1 [Example 838, (R)-2-amino-N-(1-(4-((3-aminobenzyl)oxy)benzoyl)pyrrolidin-3-yl)-5-(1-methyl-1H-pyrazol-4-yl)nicotinamide] |  |  | 100 to 1000 | > 1000
17 | (R)-2-amino-N-(1 chlorophenyl)carbamoyl)pyrrolidin-3-yl)-5-(1-(1-methylpiperidin-4-yl)-1H-pyrazol-4-yl)nicotinamide [Example 11] | 10 to 100 | > 1000 |  | 
18 | (R)-2-amino-N-(1-(2-chloro-[1,1′-biphenyl]-4-carbonyl)pyrrolidin-3-yl)-5-(1-methyl-1H-pyrazol-4-yl)nicotinamide [Example 394] |  | > 1000 | 100 to 1000 | 
19 | (R)-2-amino-N-(1-(2′-chloro-4′-fluoro-[1,1′-biphenyl]-4-carbonyl)pyrrolidin-3-yl)-5-(2-(piperidin-4-ylmethoxy)phenyl)nicotinamide [Example 771] |  |  | 100 to 1000 | > 1000
20 | (R)-2-amino-N-(1-(2′-chloro-[1,1′-biphenyl]-4-carbonyl)pyrrolidin-3-yl)-5-(4-(4-methylpiperazin-1-yl)phenyl)nicotinamide [Example 570] | < 10 | 100 to 500 |  | 
21 | (R)-2-amino-N-(1-(4′-(4-hydroxyphenoxy)-[1,1′-biphenyl]-4-carbonyl)pyrrolidin-3-yl)-5-(1-methyl-1H-pyrazol-4-yl)nicotinamide [Example 800] |  |  | 10 to 100 | > 1000
22 | (R)-2-amino-N-(1-((4′-(dimethylamino)-[1,1′-biphenyl]-3-yl)carbamoyl)pyrrolidin-3-yl)-5-(1-methyl-1H-pyrazol-4-yl)nicotinamide [Example 263] | 10 to 100 | > 1000 |  | 
